Experimental data published in PubChem BioAssay (NCI).
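Cells were grown in 96-well plates and exposed to each compound for 48 hours at five concentrations; endpoints were interpolated linearly between bracketing concentrations, or set to the highest concentration if not reached. GI50 is the concentration that inhibits growth by half. TGI marks complete inhibition of growth.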

Tests used:
Assay in all cases: inhibition of tumour cell growth, NCI panel, 48 h
[1] = tested on: COLO 205 colon
[2] = tested on: HCC-2998 colon
[3] = tested on: HS 578T breast
[4] = tested on: IGROV1 ovarian
[5] = tested on: K-562 leukemia
[6] = tested on: NCI/ADR-RES ovarian
[7] = tested on: SF-295 CNS
[8] = tested on: SW-620 colon
[9] = tested on: T-47D breast
[10] = tested on: TK-10 renal

| Structure (SMILES) | GI50 [1] | TGI [1] | GI50 [2] | TGI [2] | GI50 [3] | GI50 [4] | TGI [4] | GI50 [5] | TGI [5] | GI50 [6] | TGI [6] | GI50 [7] | TGI [7] | GI50 [8] | TGI [8] | GI50 [9] | TGI [9] | GI50 [10] | TGI [10] | TGI [3] |
| --- | --- | --- | --- | --- | --- | --- | --- | --- | --- | --- | --- | --- | --- | --- | --- | --- | --- | --- | --- | --- |
| ClC1=C(Cl)C(Cl)=C(Cl)C1=Cc1ccc(Cl)cc1 | 0.406 µM | 1.52 µM | 1140 nM | 2.54 µM | 585 nM | 0.396 µM | 2.11 µM | 388 nM | 4.1 µM | 0.366 µM | 2.15 µM | 2270 nM | 8.85 µM | 241 nM | 0.68 µM | 0.484 µM | 2.04 µM | 0.331 µM | 0.899 µM | – |
| O=C1c2cccc3cc([N+](=O)[O-])cc(c23)C(=O)N1O | – | > 100 µM | – | 65.2 µM | – | – | > 100 µM | – | > 100 µM | – | > 100 µM | – | > 100 µM | – | > 100 µM | – | > 100 µM | – | 83.6 µM | > 100 µM |
| CCOc1cc(/C=N\NC(=O)N/N=C/c2ccc(O)c(OCC)c2)ccc1O | 3.85 µM | 26.6 µM | 2970 nM | > 100 µM | 1160 nM | 4.71 µM | > 100 µM | 441 nM | > 100 µM | 3.47 µM | > 100 µM | 2250 nM | > 100 µM | 959 nM | > 100 µM | 6.49 µM | > 100 µM | > 29.1 µM | > 100 µM | > 100 µM |
| CC(C)N(C[C@H]1O[C@@H](n2cnc3c(N)ncnc32)[C@H](O)[C@@H]1O)C1CC(CCc2nc3ccc(C(C)(C)C)cc3[nH]2)C1 (stereo partly drawn) | 38.5 µM | > 100 µM | > 100000 nM | > 100 µM | > 76500 nM | > 72.4 µM | > 100 µM | 33400 nM | > 75.3 µM | > 100 µM | > 100 µM | > 70800 nM | > 100 µM | > 100000 nM | > 100 µM | 68.5 µM | > 100 µM | > 100 µM | > 100 µM | > 100 µM |
| CS(=O)(=O)c1nc(Cl)c(Cl)c(C#N)c1Cl | – | 3.08 µM | – | 29.8 µM | – | – | 14.1 µM | – | 20.6 µM | – | 6.19 µM | – | 35.1 µM | – | 3.13 µM | – | 4.83 µM | – | 5.91 µM | > 58.7 µM |
| N#CC[C@H](C1CCCC1)n1cc(-c2ncnc3[nH]ccc23)cn1 | 24.6 µM | 67.1 µM | 20600 nM | > 91.7 µM | 5190 nM | 34 µM | > 100 µM | 22200 nM | > 100 µM | 19.4 µM | > 100 µM | 19400 nM | 51.4 µM | 12500 nM | > 96.6 µM | 23.8 µM | > 91.1 µM | 13.2 µM | > 100 µM | 69.9 µM |
| O=C(CC1(O)C(=O)Nc2c(Cl)ccc(Cl)c21)c1ccc(C2CC2)cc1 (stereo not drawn) | 0.801 µM | 3.06 µM | 1850 nM | 18.2 µM | 1830 nM | 1.5 µM | 18.2 µM | 152 nM | – | 0.406 µM | 14.7 µM | 440 nM | 4.32 µM | 290 nM | 13 µM | 1.56 µM | 27.1 µM | 11.9 µM | 29.1 µM | 8.58 µM |
